{"source": "patent US5852049A", "about": "“Aromatic ethers derived from indoles which are useful as medicaments” (Pierre Fabre Medicament, priority 1994, dated 1998)", "key": {"rabbit saphenous vein": {"test_system": "rabbit saphenous vein", "assay": "contraction of the rabbit saphenous vein rings mediated by the 5HT1-like receptors", "assay_type": "cell-based", "settings": "Oryctolagus cuniculus; for Emax: read-out: Relative Emax; for EC50: read-out: pD2 (converted)", "from_the_text": "The derivatives of the present invention are, in addition, capable, like serotonin, of inducing the contraction of the rabbit saphenous vein rings mediated by the \"5HT1-like \" receptors.\nThe technique used was adapted from Van Heuven-Nolsen D. et al., Eur. J. Pharmacol. 191, 375-382 (1990) and from Martin G. R. and Mc Lennan S. J., Naunyn-Schmiedeberg's Arch. Pharmacol. 342, 111-119 (1990) and therefore makes it possible to determine a pD2 value and an Emax relative to serotonin for each product tested."}, "human 5HT1A": {"molecular_target": "T1, human 5HT1A (Homo sapiens, UniProt P08908)", "T1 construct": "expressed in transfected cells; host or cells: HeLa HA7", "T1 sequence (P08908 1-422)": "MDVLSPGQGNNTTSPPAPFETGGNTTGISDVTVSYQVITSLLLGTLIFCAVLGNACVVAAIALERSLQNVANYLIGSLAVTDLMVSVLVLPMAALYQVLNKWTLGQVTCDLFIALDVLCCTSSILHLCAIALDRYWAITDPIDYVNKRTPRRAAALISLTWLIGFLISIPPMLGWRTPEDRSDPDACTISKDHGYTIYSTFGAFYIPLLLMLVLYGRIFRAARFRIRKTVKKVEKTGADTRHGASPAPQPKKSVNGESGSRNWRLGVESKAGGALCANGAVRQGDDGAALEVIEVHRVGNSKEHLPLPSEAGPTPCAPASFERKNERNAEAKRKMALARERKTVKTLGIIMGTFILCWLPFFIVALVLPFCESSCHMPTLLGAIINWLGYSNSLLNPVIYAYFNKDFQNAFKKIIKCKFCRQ", "assay": "binding to human 5HT1A receptor (HeLa HA7 cell line)", "from_the_text": "The HeLa HA7 cell line expressing the human 5HT1A receptor was obtained from Tulco (Duke Univ., Durham, N.C., USA) and cultured according to the method of Fargin et al., J. Biol. Chem. 264, 14848 (1989).\nPalmier (Neuropharmacology, 33, 67, 1994)."}, "human 5HT1Dα": {"molecular_target": "T2, human 5HT1Dα (Homo sapiens, UniProt P28221)", "T2 construct": "expressed in transfected cells; host or cells: Cos-7 and CHO-K1", "T2 sequence (P28221 whole entry)": "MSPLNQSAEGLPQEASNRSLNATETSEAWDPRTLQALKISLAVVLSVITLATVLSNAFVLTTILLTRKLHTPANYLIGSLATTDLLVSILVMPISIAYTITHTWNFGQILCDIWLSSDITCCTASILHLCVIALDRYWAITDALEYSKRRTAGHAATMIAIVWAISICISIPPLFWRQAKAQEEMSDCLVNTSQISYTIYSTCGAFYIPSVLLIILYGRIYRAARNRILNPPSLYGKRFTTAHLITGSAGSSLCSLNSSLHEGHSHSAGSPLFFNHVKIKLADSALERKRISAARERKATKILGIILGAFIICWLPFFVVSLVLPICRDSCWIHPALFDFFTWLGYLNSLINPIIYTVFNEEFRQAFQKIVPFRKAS", "assay": "binding to human 5HT1Dα receptor"}, "human 5HT1Dβ": {"molecular_target": "T3, human 5HT1Dβ (Homo sapiens, UniProt P28222)", "T3 construct": "expressed in transfected cells; host or cells: Cos-7 and CHO-K1", "T3 sequence (P28222 whole entry)": "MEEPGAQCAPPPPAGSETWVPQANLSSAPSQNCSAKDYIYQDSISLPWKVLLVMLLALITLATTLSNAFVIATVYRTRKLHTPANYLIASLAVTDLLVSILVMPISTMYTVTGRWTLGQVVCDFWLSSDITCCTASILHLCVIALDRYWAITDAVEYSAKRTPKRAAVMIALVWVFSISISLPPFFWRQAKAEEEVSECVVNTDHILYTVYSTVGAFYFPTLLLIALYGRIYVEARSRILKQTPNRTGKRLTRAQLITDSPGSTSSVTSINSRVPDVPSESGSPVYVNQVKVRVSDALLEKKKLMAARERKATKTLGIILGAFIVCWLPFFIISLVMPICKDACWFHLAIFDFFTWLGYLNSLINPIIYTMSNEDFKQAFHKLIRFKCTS", "assay": "binding to human 5HT1Dβ receptor"}, "[1]": {"settings": "contraction of the rabbit saphenous vein"}, "[2]": {"settings": "human receptor, HeLa HA7, [3H]-8OH-DPAT 1 nM, read-out: Ki 5HT1A"}, "[3]": {"settings": "Emax of the compound relative to Emax of serotonin"}, "[4]": {"settings": "human receptor, [3H]-5CT 2 nM, read-out: Ki 5HT1Dβ"}}, "note": "Structures can show the parent of a compound that is named as a salt. Where two headings read alike, the source gives them in different places."}
{"smiles": "CCOC(=O)CCCOc1ccc2[nH]cc(CCN)c2c1", "note": "[Example 12, Ethyl 4-[3-(2-aminoethyl)-1H-indol-5-yloxy)-butyrate hydrochloride]", "values": [{"measurement": "Emax", "setting": "rabbit saphenous vein", "result": 80, "unit": "%"}, {"measurement": "EC50", "setting": "rabbit saphenous vein; [1]", "result": 692, "unit": "nM"}]}
{"smiles": "NCCCCCCOc1ccc2[nH]cc(CCN)c2c1", "note": "[Example 18, 6-[3-(2-Aminoethyl)-1H-indol-5-yloxy]hexylamine hydrochloride]", "values": [{"measurement": "Ki", "setting": "human 5HT1A", "result": 78.6, "unit": "nM"}, {"measurement": "Ki", "setting": "human 5HT1Dα", "result": 2.4, "unit": "nM"}, {"measurement": "Ki", "setting": "human 5HT1Dβ", "result": 2, "unit": "nM"}]}
{"smiles": "CNS(=O)(=O)CCc1ccc2[nH]cc(C3CCN(C)CC3)c2c1", "note": "[Naratriptan, reference compound]", "values": [{"measurement": "Ki", "setting": "human 5HT1A; [2]", "result": 46, "unit": "nM"}, {"measurement": "Ki", "setting": "human 5HT1Dα; human receptor, [3H]-5CT 2 nM, read-out: Ki 5HT1Dα", "result": 1.6, "unit": "nM"}, {"measurement": "Emax", "setting": "rabbit saphenous vein; [3]", "result": 100, "unit": "%"}, {"measurement": "EC50", "setting": "rabbit saphenous vein; [1]", "result": 2880, "unit": "nM"}, {"measurement": "Ki", "setting": "human 5HT1Dβ; [4]", "result": 2, "unit": "nM"}]}
{"smiles": "N#CCCCCCOc1ccc2[nH]cc(CCN)c2c1", "note": "[Example 17, 6-[3-(2-Aminoethyl)-1H-indol-5-yloxy]hexanitrile hydrochloride]", "values": [{"measurement": "Ki", "setting": "human 5HT1A; [2]", "result": 24.3, "unit": "nM"}, {"measurement": "Ki", "setting": "human 5HT1Dα", "result": 2.2, "unit": "nM"}, {"measurement": "Ki", "setting": "human 5HT1Dβ; [4]", "result": 2.6, "unit": "nM"}]}
{"smiles": "CC(C)OC(=O)CCCCCOc1ccc2[nH]cc(CCN)c2c1", "note": "[Example 16, Isopropyl 6-[3-(2-aminoethyl)-1H-indol-5-yloxy]hexanoate hydrochloride]", "values": [{"measurement": "Ki", "setting": "human 5HT1A", "result": 9, "unit": "nM"}, {"measurement": "Ki", "setting": "human 5HT1Dα", "result": 1.5, "unit": "nM"}, {"measurement": "Emax", "setting": "rabbit saphenous vein", "result": 136, "unit": "%"}, {"measurement": "EC50", "setting": "rabbit saphenous vein; [1]", "result": 240, "unit": "nM"}, {"measurement": "Ki", "setting": "human 5HT1Dβ", "result": 0.7, "unit": "nM"}]}
{"smiles": "CCNC(=O)CCCCCOc1ccc2[nH]cc(CCN)c2c1", "note": "[Example 20, 6-[3-(2-Aminoethyl)-1H-indol-5-yloxy]-N-ethylhexanamide hydrochloride]", "values": [{"measurement": "Ki", "setting": "human 5HT1A; read-out: Ki 5HT1A, human receptor, HeLa HA7, [3H]-8OH-DPAT 1 nM", "result": 46.5, "unit": "nM"}, {"measurement": "Ki", "setting": "human 5HT1Dα; read-out: Ki 5HT1Dα, human receptor, [3H]-5CT 2 nM", "result": 2, "unit": "nM"}, {"measurement": "Ki", "setting": "human 5HT1Dβ; read-out: Ki 5HT1Dβ, human receptor, [3H]-5CT 2 nM", "result": 1.1, "unit": "nM"}]}
{"smiles": "CCOC(=O)CCCCOc1ccc2[nH]cc(CCN)c2c1", "note": "[Example 13, Ethyl 5-[3-(2-aminoethyl)-1H-indol-5-yloxy]pentanoate hydrochloride]", "values": [{"measurement": "Emax", "setting": "rabbit saphenous vein", "result": 120, "unit": "%"}, {"measurement": "EC50", "setting": "rabbit saphenous vein; [1]", "result": 309, "unit": "nM"}]}
{"smiles": "CNS(=O)(=O)Cc1ccc2[nH]cc(CCN(C)C)c2c1", "note": "[Sumatriptan, reference compound]", "values": [{"measurement": "Emax", "setting": "rabbit saphenous vein; [3]", "result": 126, "unit": "%"}, {"measurement": "EC50", "setting": "rabbit saphenous vein; [1]", "result": 1780, "unit": "nM"}]}
{"smiles": "CS(=O)(=O)NCCCCCCOc1ccc2[nH]cc(CCN)c2c1", "note": "[Example 19, N-{6-[3-(2-Aminoethyl)-1H-indol-5-yloxy]hexyl}methanesulfonamide hydrochloride]", "values": [{"measurement": "Ki", "setting": "human 5HT1A", "result": 11.5, "unit": "nM"}, {"measurement": "Ki", "setting": "human 5HT1Dα", "result": 1.1, "unit": "nM"}, {"measurement": "Emax", "setting": "rabbit saphenous vein", "result": 100, "unit": "%"}, {"measurement": "EC50", "setting": "rabbit saphenous vein", "result": 15.8, "unit": "nM"}, {"measurement": "Ki", "setting": "human 5HT1Dβ", "result": 0.7, "unit": "nM"}]}
{"smiles": "CC(=O)OCCCCOc1ccc2[nH]cc(CCN)c2c1", "note": "[Example 23, 4-[3-(2-Aminoethyl)-1H-indol-5-yloxy]butylacetate hydrochloride]", "values": [{"measurement": "Ki", "setting": "human 5HT1A", "result": 40, "unit": "nM"}, {"measurement": "Ki", "setting": "human 5HT1Dα", "result": 0.9, "unit": "nM"}, {"measurement": "Ki", "setting": "human 5HT1Dβ", "result": 0.4, "unit": "nM"}]}
